Measured values taken from patent US12721800B2, “Phosphonates and N-halamines compositions for tartar removal” (O.Y.M. INNOVATION LTD., priority 2021, dated 2026).

Assays:
[1] = Effect of SUTP, poly(StBP) NPs and γ-Glu-BP on human teeth (incubation, brushing, overnight re-incubation); settings: for precipitate of tartar during incubation: 1 mg/ml aqueous solution, 4 ml, pH=4, RT, after 15 min of incubation; for cleaning of teeth from tartar (photographs): 1 mg/ml, pH=4, RT 1 hr, brushing, new solution overnight, washed with DDW
Method: The effect of SUTP (Example 1), poly(StBP) NPs (Example 4), and γ-Glu-BP (Example 2) on human teeth was evaluated as followed:
Teeth were incubated in three separate aqueous solutions of: SUTP, poly(StBP) NPs, and γ-Glu-BP (1 mg/ml, 4 ml, pH=4) at RT for 1 hr. […] The teeth were then brushed by a toothbrush to remove the remain tartar layer on the teeth and were incubated in new solutions of SUTP, poly(StBP) NPs, and γ-Glu-BP overnight. Then, the teeth were washed by DDW and were photographed.

[2] = Comparison of succinyl tetraphosphonate and two industrial pyrophosphates on human teeth having mature tartar; settings: for mature tartar removal (images before and after treatment): 1 mg/ml in PBS, pH=7, 5 ml, shaken 10 min, then brushed 2 min
Method: The effect of succinyl tetraphosphonate and two types of industrial pyrophosphates on human teeth having mature tartar as were evaluated as followed:
Human teeth were incubated and shaken in 5 ml solution of PBS with SUTP ((a) see structure below), sodium pyrophosphate tetrabasic ((b) see structure below) and sodium pyrophosphate dibasic ((c) see structure below) (1 mg/ml, pH=7) for 10 min. Then, the teeth were brushed by a toothbrush for 2 min. Images were captured before and after treatment FIG. 6 (with SUTP), FIG. 7 (with sodium pyrophosphate tetrabasic), and FIG. 8 (with sodium pyrophosphate dibasic).

[3] = Effect of halamine NPs and SUTP on mature tartar removal on human teeth (10 min stirring, then brushing)
Method: The effect of halamines nanoparticles (as presented in Table 1) and SUTP compounds on mature tartar removal on human teeth were studied. 5 mL of each aqueous suspension were added to a 20 mL vial, and a tooth with tartar was added to each vial. Then, the solutions were stirred for 10 min at room temperature. After 10 minutes the teeth were brushed using a soft toothbrush and a photo of the tooth were taken.

SMILES	precipitate of tartar during incubation [1]	cleaning of teeth from tartar (photographs) [1]	mature tartar removal (images before and after treatment) [2]	cloudiness of the solution after the teeth brushing (tartar removed from the teeth) ([2]; 1 mg/ml, solution captured after teeth brushing)	tartar removal from tooth ([3]; 1 mg/mL, pH 3-4, 10 min stirring and brushing)	tartar removal from tooth ([3]; 1 mg/mL, pH 6-7, 10 min stirring and brushing)	tartar removal from tooth ([3]; 10 mg/mL, pH 3-4, 10 min stirring and brushing)
NC(CCC(O)(P(=O)(O)O)P(=O)(O)O)C(=O)O (centres unmarked) [γ-Glu-BP]	a new precipitate of tartar was observed spontaneously	cleaning of dirty teeth from tartar					
O=P(O)(O)C(O)(CCC(O)(P(=O)(O)O)P(=O)(O)O)P(=O)(O)O [SUTP, Succinyl tetra phosphonate]	a new precipitate of tartar was observed spontaneously	cleaning of dirty teeth from tartar	a significant mature tartar was removed	significantly cloudier than the others	partially clean	partially clean	completely clean
O=P([O-])(O)OP(=O)([O-])O.[Na+].[Na+] [Sodium pyrophosphate dibasic, sodium pyrophosphate dibasic, reference compound]			did not remove the mature tartar				
O=P([O-])([O-])OP(=O)([O-])[O-].[Na+].[Na+].[Na+].[Na+] [Sodium pyrophosphate tetrabasic, sodium pyrophosphate tetrabasic, reference compound]			did not remove the mature tartar				
